Source: patent US20030153549A1, “Clavams as protease inhibitors” (priority 2000, published 2003)

Key:
[1] = molecular target: porcine pancreatic elastase PPE (Sus scrofa, UniProt P00772); assay: Enzyme assay: hydrolysis of Suc-AlaAlaProAla-pNa by PPE, measured at 405 nm; format: biochemical; settings: for IC50: substrate 100 μM, 25° C., pH 7.5, 10% DMSO; for inhibitory potency with pre-incubation of the clavam with PPE: with pre-incubation versus without
Procedure: Enzyme assays. Enzyme assays were performed using a Shimadzu 1601PC spectrophotometer equipped with a thermostatted multi-cell transport system. The hydrolysis of the para-nitroanilide substrate (Suc-AlaAlaProAla-pNa, 100 μM) was measured at 405 nm and at a constant temperature of 25° C. in 0.1 M Tris-HCl buffer (pH 7.5). At least quadruplicate measurements of the initial rate were determined at five inhibitor concentrations and data analysed using standard kinetic equations programmed into Excel (Microsoft Corp.) and Grafit (Erithacus Inc.). To aid solubility the clavam inhibitors were dissolved in DMSO to give a final concentration in the assay of 10% (v/v).
It is likely that the lack of inhibition observed from clavulanic acid (1) is due to the presence of a negative charge on the carboxylic acid on C-3 which prevents binding within the PPE active site.

PPE [2] = molecular target: T1, PPE (Sus scrofa, UniProt P00772); assay: Electrospray ionisation mass spectrometry of PPE incubated with one equivalent of inhibitor (adduct formation); format: binding, porcine; settings: time points 3 minutes to 5 hours, unbuffered
Procedure: Electrospray ionisation mass spectrometry. Electrospray ionisation mass spectra were recorded on a Micromass BioQ II-ZS triple quadruple mass spectrometer equipped with an electrospray interface. PPE at 80 pmol μl^−1 was incubated with one equivalent of inhibitor. Samples (5 μl) were removed at fixed time points, diluted with water:acetonitrile (1:1 v/v) containing 0.2% (v/v) formic acid to give a protein concentration of 5 pmol μl^−1 and analysed immediately. The resulting electrospray mass spectra were calibrated relative to native porcine pancreatic elastase PPE and processed using the MaxEnt algorithm and the spectra reported as centroided data.

PPE [3] = molecular target: T1, PPE; assay: 1H NMR analysis of incubation of PPE with clavulanic acid derivative (ester hydrolysis); format: biochemical, porcine; settings: D2O/CD3CN, 303K
Procedure: NMR experimental procedures. ^1H NMR analyses were performed at 500 MHz on a Bruker AMX500 instrument. Samples (450-500 μl) of PPE (ca. 3 mg) and clavulanic acid derivative (ca 3 mg) were dissolved in 10% (v/v) CD3CN in D2O. The temperature was regulated at 303K and the spectra were referenced to internal MeCN at 2.05 ppm.
Their identity was subsequently confirmed by doping experiments.

T1 sequence (P00772 27-266): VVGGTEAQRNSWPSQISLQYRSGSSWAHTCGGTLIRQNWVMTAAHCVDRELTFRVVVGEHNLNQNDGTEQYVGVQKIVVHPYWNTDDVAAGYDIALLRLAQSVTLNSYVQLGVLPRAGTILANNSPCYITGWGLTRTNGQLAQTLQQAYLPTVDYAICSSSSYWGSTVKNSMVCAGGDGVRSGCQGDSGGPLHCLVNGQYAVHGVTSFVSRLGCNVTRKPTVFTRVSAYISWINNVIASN
Chain of porcine pancreatic elastase PPE (P00772 27-266): as above

inhibition ([1]; pre-incubation of clavam with PPE 15 minutes) [%]	inhibition ([1]; pre-incubation of clavam with PPE 30 minutes) [%]	inhibition ([1]; pre-incubation of clavam with PPE 60 minutes) [%]	IC50 ([1]; standard assay conditions) [µM]	inhibitory potency with pre-incubation of the clavam with PPE [1]	SMILES	inhibition of PPE ([1]; standard assay conditions)	mass increments / adducts relative to native PPE (ESIMS) (PPE [2])	PPE-catalysed hydrolysis of the ester side chain (1H NMR) (PPE [3])
					O=C(O)[C@H]1/C(=C/CO)O[C@@H]2CC(=O)N21 [compound 1, Clavulanic acid, reference compound]	did not inhibit PPE	no mass increments	
43	87	93	184	increased significantly	O=C(OCc1ccccc1)[C@H]1/C(=C/CO)O[C@@H]2CC(=O)N21 [compound 9]		formation of an initial acyl-enzyme complex	just visible after a one hour incubation period
			187	increased significantly	O=C(OCc1ccc([N+](=O)[O-])cc1)[C@H]1/C(=C/CO)O[C@@H]2CC(=O)N21 [compound 10]		formation of the 70 and 88 Da adducts appeared to be slightly faster	
